Test results published in PubChem BioAssay AID248 (DTP/NCI, 2004).
Values joined by “and” are separate entries in the source; they are usually repeats but may differ in a detail not shown here. Equal values may be shown once. Inconclusive results and toxic doses are left out. Rule as the data show it: active = T/C of 150% or more; inactive = T/C below 125%.

Tested on: L1210 leukemia ip in BDF1 mice, survival T/C
Assay: NCI In Vivo Anticancer Drug Screen. Data for tumor model L1210 Leukemia (intraperitoneal) in B6D2F1 (BDF1) mice
Details: endpoint: mean survival time, higher = longer survival
Outline: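 Transplanted-tumor mice were given test agent; controls received vehicle only. Survival readings from the two groups were divided (treated over control).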

[1] = dose: 100.0 mg/kg/injection, schedule: Q04DX003 (ip), vehicle: Klucel (hydroxypropylcellulose) (HPC)
[2] = dose: 200.0 mg/kg/injection, schedule: Q04DX003 (ip), vehicle: Klucel (hydroxypropylcellulose) (HPC)
[3] = dose: 400.0 mg/kg/injection, schedule: Q04DX003 (ip), vehicle: Klucel (hydroxypropylcellulose) (HPC)
[4] = dose: 100.0 mg/kg/injection, schedule: Q04DX003 (ip), vehicle: saline with Tween-80
[5] = dose: 100.0 mg/kg/injection, schedule: Q01DX009 (ip), vehicle: Klucel (hydroxypropylcellulose) (HPC)
[6] = dose: 200.0 mg/kg/injection, schedule: Q01DX009 (ip), vehicle: Klucel (hydroxypropylcellulose) (HPC)
[7] = dose: 400.0 mg/kg/injection, schedule: Q01DX009 (ip), vehicle: Klucel (hydroxypropylcellulose) (HPC)
[8] = dose: 100.0 mg/kg/injection, schedule: Q01DX001 (ip), vehicle: carboxymethylcellulose (CMC)
[9] = dose: 200.0 mg/kg/injection, schedule: Q01DX001 (ip), vehicle: carboxymethylcellulose (CMC)
[10] = dose: 400.0 mg/kg/injection, schedule: Q01DX001 (ip), vehicle: carboxymethylcellulose (CMC)
[11] = dose: 100.0 mg/kg/injection, schedule: Q04DX003 (ip), vehicle: saline
[12] = dose: 200.0 mg/kg/injection, schedule: Q04DX003 (ip), vehicle: saline
[13] = dose: 200.0 mg/kg/injection, schedule: Q04DX003 (ip), vehicle: saline with Tween-80
[14] = dose: 400.0 mg/kg/injection, schedule: Q04DX003 (ip), vehicle: saline with Tween-80
[15] = dose: 100.0 mg/kg/injection, schedule: Q01DX001 (ip), vehicle: other
[16] = dose: 200.0 mg/kg/injection, schedule: Q01DX001 (ip), vehicle: other
[17] = dose: 400.0 mg/kg/injection, schedule: Q01DX001 (ip), vehicle: other

Measured: T/C

CC1(C(N)=O)OC12CCCCC2CCC(=O)O (stereo not given)
inactive: [1] 102 % of control | [2] 93 % of control | [3] 93 % of control

S=C(Nc1ccccc1)Sc1ccc(Cl)cc1
inactive: dose: 25.0 mg/kg/injection, schedule: Q04DX003 (ip), vehicle: saline with Tween-80 96 % of control | dose: 50.0 mg/kg/injection, schedule: Q04DX003 (ip), vehicle: saline with Tween-80 92 % of control | [4] 101 % of control

CCOC(=O)c1ccc(O)c(NC(C)=O)c1
inactive: [5] 95 % of control | [1] 95 % of control | [6] 94 % of control | [2] 100 % of control | [7] 94 % of control | [3] 91 % of control

CCCCCCCCCCCC(=O)O
inactive: dose: 100.0 mg/kg/injection, schedule: Q01DX009 (ip), vehicle: saline with Tween-80 92 % of control | dose: 200.0 mg/kg/injection, schedule: Q01DX009 (ip), vehicle: saline with Tween-80 106 % of control | dose: 400.0 mg/kg/injection, schedule: Q01DX009 (ip), vehicle: saline with Tween-80 96 % of control

CN(C)c1ccc(C=Nc2ccc(/C=C3\C=Cc4ccccc43)cc2)cc1
inactive: dose: 50.0 mg/kg/injection, schedule: Q01DX001 (ip), vehicle: carboxymethylcellulose (CMC) 91 % of control | [8] 93 % of control | [9] 96 % of control | [10] 96 % of control

CCCCCCCCCCCCc1ccc(-c2cc(-c3ccccc3)cc(-c3ccccc3)c2)cc1
inactive: dose: 75.0 mg/kg/injection, schedule: Q01DX001 (ip), vehicle: saline 100 % of control | dose: 150.0 mg/kg/injection, schedule: Q01DX001 (ip), vehicle: saline 89 % of control | dose: 300.0 mg/kg/injection, schedule: Q01DX001 (ip), vehicle: saline 94 % of control

C[N+]1(C)N=C([O-])C=C1c1ccccc1
inactive: [11] 111 % of control | [12] 104 % of control | dose: 400.0 mg/kg/injection, schedule: Q04DX003 (ip), vehicle: saline 102 % of control

CCCCCCCCCCCCCCCCCCNC(=S)Nc1ccccc1
inactive: [4] 95 % of control | [13] 90 % of control | [14] 92 % of control

CCCCCCCCCCCC(O)CCCC (stereo not given)
inactive: [5] 90 % of control | [1] 96 % of control | [6] 95 % of control | [2] 91 % of control | [3] 90 % of control

c1ccc2oc(CCCCc3nc4ccccc4o3)nc2c1
inactive: [5] 91 % of control | [1] 102 % of control | [6] 102 % of control | [2] 104 % of control | [7] 92 % of control | [3] 102 % of control

COc1c(C)c(C)c(OC(C)=O)c(C)c1Br
inactive: [4] 96 % of control | [13] 89 % of control | [14] 91 % of control

O=C(CCCN1CCC2(CC1)C(=O)NCN2c1ccccc1)c1ccc(F)cc1
inactive: dose: 0.78 mg/kg/injection, schedule: Q01DX009 (ip), vehicle: saline 96 % of control | dose: 0.78 mg/kg/injection, schedule: Q04DX003 (ip), vehicle: saline 98 % of control | dose: 1.56 mg/kg/injection, schedule: Q01DX009 (ip), vehicle: saline 105 % of control | dose: 1.56 mg/kg/injection, schedule: Q04DX003 (ip), vehicle: saline 96 % of control | dose: 3.12 mg/kg/injection, schedule: Q01DX009 (ip), vehicle: saline 107 % of control | dose: 3.12 mg/kg/injection, schedule: Q04DX003 (ip), vehicle: saline 105 % of control | dose: 6.25 mg/kg/injection, schedule: Q01DX009 (ip), vehicle: saline 97 % of control | dose: 6.25 mg/kg/injection, schedule: Q04DX003 (ip), vehicle: saline 106 % of control | dose: 12.5 mg/kg/injection, schedule: Q01DX009 (ip), vehicle: saline 92 % of control | dose: 12.5 mg/kg/injection, schedule: Q04DX003 (ip), vehicle: saline 124 % of control | dose: 50.0 mg/kg/injection, schedule: Q04DX003 (ip), vehicle: saline 120 % of control | [12] 93 % of control

CCCCCCCCCCCCC(=O)O
inactive: dose: 100.0 mg/kg/injection, schedule: Q04DX002 (ip), vehicle: saline with Tween-80 98 % of control | dose: 200.0 mg/kg/injection, schedule: Q04DX002 (ip), vehicle: saline with Tween-80 98 % of control | dose: 400.0 mg/kg/injection, schedule: Q04DX002 (ip), vehicle: saline with Tween-80 105 % of control

O=C(CCCl)Nc1ccc(S(=O)(=O)Nc2nccs2)cc1
inactive: [15] 101 % of control | [16] 95 % of control | [17] 97 % of control

C=C(NC(=O)C(=C)NC(=O)c1csc(C2=NC3c4csc(n4)C4NC(=O)c5csc(n5)C(C(C)(O)C(C)O)NC(=O)C5CSC(=N5)/C(=C/C)NC(=O)C(C(C)O)NC(=O)c5csc(n5)C3(CC2)NC(=O)C(C)NC(=O)C(=C)NC(=O)C(C)NC(=O)C(C(C)CC)NC2C=Cc3c(C(C)O)cc(nc3C2O)C(=O)OC4C)n1)C(N)=O (stereo not given)
inactive: [8] 110 % of control | [11] 113 % of control | dose: 178.0 mg/kg/injection, schedule: Q01DX001 (ip), vehicle: saline 117 % of control | [9] 112 % of control | [10] 112 % of control

CC(=O)OCC1OC(n2cnc3c(=O)[nH]c(N)nc32)C(OC(C)=O)C1OC(C)=O (stereo not given)
inactive: dose: 100.0 mg/kg/injection, schedule: Q01DX005 (ip), vehicle: saline 91 % of control | dose: 200.0 mg/kg/injection, schedule: Q01DX005 (ip), vehicle: saline 102 % of control and 109 % of control

CC(C)OC(=O)Oc1c(Cl)c(Cl)c(Cl)c(Cl)c1Cl
inactive: [5] 95 % of control | dose: 100.0 mg/kg/injection, schedule: Q04DX002 (ip), vehicle: Klucel (hydroxypropylcellulose) (HPC) 105 % of control | [6] 98 % of control | dose: 200.0 mg/kg/injection, schedule: Q04DX002 (ip), vehicle: Klucel (hydroxypropylcellulose) (HPC) 94 % of control | dose: 400.0 mg/kg/injection, schedule: Q04DX002 (ip), vehicle: Klucel (hydroxypropylcellulose) (HPC) 98 % of control

Cc1ccc(N=Nc2cc(C(C)C)c(O)cc2C)cc1
inactive: [15] 97 % of control | [16] 97 % of control | [17] 95 % of control

CC(NC(=O)c1ccc2ccccc2n1)C(=O)O (stereo not given)
inactive: [8] 92 % of control | [9] 87 % of control | [10] 89 % of control

CC(=O)OC1COC(NC(=O)NNc2ccccc2)C(OC(C)=O)C1OC(C)=O (stereo not given)
inactive: dose: 100.0 mg/kg/injection, schedule: Q01DX009 (ip), vehicle: saline 88 % of control | dose: 100.0 mg/kg/injection, schedule: Q04DX003 (ip), vehicle: water 94 % of control | dose: 200.0 mg/kg/injection, schedule: Q01DX009 (ip), vehicle: saline 92 % of control | dose: 200.0 mg/kg/injection, schedule: Q04DX003 (ip), vehicle: water 97 % of control | dose: 400.0 mg/kg/injection, schedule: Q04DX003 (ip), vehicle: water 96 % of control

Cc1cc(I)ccc1NC(=S)Nc1ccccc1F
inactive: [4] 93 % of control | [13] 105 % of control
